Test results published in patent US11779628B2, “Use of cell-permeable peptide inhibitors of the JNK signal transduction pathway for the treatment of various diseases” (Xigen Inflammation Ltd., priority 2014, dated 2023).

System: Hep G2 human hepatocarcinoma tumor
Assay: Orthotopic HEP G2 human liver carcinoma, dose/response
Format: in vivo, mice
Conditions: 0.1, 1, 5 mg/kg/inj IV, Q4Dx4
Method: The objective of this study was to determine the antitumor activity of XG-102 (dose/response) in the model of SWISS Nude mice bearing the orthotopic Hep G2 human hepatocarcinoma tumor.
For XG-102 administration XG-102 was prepared at the concentration of 1 mg/ml with sterile water (WFI, Aguettant, France). Lt was then cliluted at the concentrations of 0.2 and 0.02 mg/ml with sterile water. All these steps were performed within one hour prior to injection to mice. XG-102 was injected at 0.1, 1 and 5 mg/kg/inj. Four injections were performed, each separated by four days (Q4Dx4).
Twenty four hours before tumor induction, 32 female SWISS Nude mice were irradiated with a γ-source (2.5 Gy, Co^60, INRA, Dijon, France). […]
Mice were monitored every day throughout the study for behaviour and survival. The body weight was monitored twice a week for all mice throughout the study. […]
At D67, 3 mice randomly selected per group during randomization were sacrificed for observation of macroscopic development. […] Histological sections were analyzed by a pathologist expert to determine the metastatic invasion in liver.
For the body weight analysis body weight curves of mice were drawn. Mean body weight change (MBWC): Average weight change of treated animals in grams (weight at day X minus weight at D10) was calculated.
Efficacy parameters were expressed as a percent (T/C %). […]

**Q.** `CC(C)C[C@@H](NC(=O)[C@@H](Cc1ccccc1)NC(=O)[C@H]1CCCN1C(=O)[C@@H](CCC(N)=O)NC(=O)[C@H](NC(=O)[C@H]1CCCN1C(=O)[C@@H](CCCNC(=N)N)NC(=O)[C@@H](CO)NC(=O)[C@@H](CCC(N)=O)NC(=O)[C@H](N)CC(=O)O)C(C)C)C(=O)N[C@H](CC(N)=O)C(=O)N[C@H](CC(C)C)C(=O)N[C@@H](C(=O)N[C@@H](C(=O)N1CCC[C@@H]1C(=O)N[C@H](CCCNC(=N)N)C(=O)N[C@H](CCCCN)C(=O)N1CCC[C@@H]1C(=O)N[C@H](CCCNC(=N)N)C(=O)N1CCC[C@@H]1C(=O)N1CCC[C@@H]1C(=O)N[C@H](CCCNC(=N)N)C(=O)N[C@H](CCCNC(=N)N)C(=O)N[C@H](CCCNC(=N)N)C(=O)N[C@H](CCC(N)=O)C(=O)N[C@H](CCCNC(=N)N)C(=O)N[C@H](CCCNC(=N)N)C(=O)N[C@H](CCCCN)C(=O)N[C@H](CCCCN)C(=O)N[C@H](CCCNC(=N)N)C(=O)NCC(=O)O)[C@H](C)O)[C@H](C)O` [XG-102] was tested. Which body weight did it give?
**A.** The body weight was “no apparent differences occurred for the body weight”.
